ChEMBL document CHEMBL1201862, “PubChem BioAssay data set” (2004)
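Each compound was tested at five concentrations against cells in 96-well plates for 48 hours. GI50 marks 50% less growth.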 Calls of active or inactive are those of the source. Cut-off read from the data, not from the text of the source: active = GI50 up to about 1.1 µM and inactive = higher.

Columns and labels:
Assay in all cases: DTP human tumour cell line panel, 48 h
MCF7 = system: MCF7
XF498 = system: XF498
KM-20L2 = system: KM-20L2
SNB-78 = system: SNB-78
DMS-114 = system: DMS-114
DLD-1 = system: DLD-1
DMS-273 = system: DMS-273
HOP-18 = system: HOP-18
RXF 631 = system: RXF 631

SMILES	GI50 (MCF7)	GI50 (KM-20L2)	GI50 (DMS-114)	further results
CN(C)c1ccc(/N=C2/NC(=N\c3ccccc3)/C(=N/c3ccccc3)S2)cc1	19.9 µM (inactive)			
Nc1nc2cc(CNc3ccc(C(=O)O)cc3)ccc2nc1-c1ccccc1	> 100 µM (inactive)			
CC1(C)N=c2c(ncn2N)=C(C(N)=O)N1	> 100 µM (inactive)			
Cc1c(NC(=O)CSC(=S)N(C)C)c(=O)n(-c2ccccc2)n1C	> 100 µM (inactive)			
CO[C@@H]1[C@@H](OC2OC(C)C(OC3CC(C)(O)C(OC(=O)CC(C)C)C(C)O3)C(N(C)C)C2O)[C@@H](CC=O)C[C@@H](C)C(=O)/C=C/C2O[C@H]2C[C@@H](C)OC(=O)C[C@H]1OC(C)=O (some centres undefined)	16.3 µM (inactive)			
C=C1C(=O)C23CC1C[C@H](OC(C)=O)[C@H]2C1(C)C(OC(C)=O)C[C@H](O)C(C)(C)[C@H]1C(=O)[C@@H]3OC(C)=O (some centres undefined)	3.93 µM (inactive)			
CCOC(=O)/C=C/c1cccc(F)c1	> 100 µM (inactive)			
COc1ccc(O)cc1 [MEQUINOL]		28.6 µM (inactive)	48.4 µM (inactive)	GI50 (XF498): > 100 µM (inactive); GI50 (SNB-78): > 100 µM (inactive); GI50 (DLD-1): > 100 µM (inactive)
CCCCCCCCC[n+]1cccc(C2C(C(=O)OCC)=C(C)NC(C)=C2C(=O)OCC)c1	2.6 µM (inactive)			
O=C(O)CCCCCO		> 100 µM (inactive)	> 100 µM (inactive)	GI50 (XF498): > 100 µM (inactive); GI50 (DMS-273): > 100 µM (inactive); GI50 (SNB-78): > 100 µM (inactive); GI50 (HOP-18): > 100 µM (inactive); GI50 (DLD-1): > 100 µM (inactive)
CCOC(=O)/C(=C/c1cccc(Cl)c1)N(CC)CC			31 µM (inactive)	GI50 (XF498): 46.3 µM (inactive); GI50 (HOP-18): 24.2 µM (inactive); GI50 (DLD-1): 48.9 µM (inactive)
COc1ccc(C)cc1NC(=S)N/N=C/c1ccco1	4.94 µM (inactive)			
COC(=O)C(=Cc1cc(OC)c(OC)c(OC)c1-c1cc2c(cc1C1(C)OCCS1)OCO2)C(=O)OC (centres undefined)		22.3 µM (inactive)	19.8 µM (inactive)	GI50 (DMS-273): 23.2 µM (inactive); GI50 (RXF 631): 31.4 µM (inactive); GI50 (DLD-1): 27.6 µM (inactive)
N#C/C(C(=O)Nc1ccccc1)=C(/N)N1CCCCC1	> 100 µM (inactive)			
CCOP(=O)(OCC)C1=NC=CC=CC1n1c(-c2ccccc2)nn(CC)c1=O (centres undefined)		> 100 µM (inactive)	> 100 µM (inactive)	GI50 (DMS-273): > 100 µM (inactive); GI50 (RXF 631): > 100 µM (inactive); GI50 (HOP-18): > 100 µM (inactive); GI50 (DLD-1): > 100 µM (inactive)
COC(=O)c1cc(C)n(CN(Cn2nc(C(=O)OC)cc2C)c2ccccc2)n1	28.1 µM (inactive)			

SMILES	GI50 (MCF7)	GI50 (KM-20L2)	GI50 (DMS-114)	further results
COc1cccc(C2CC23C(=O)NC(=O)NC3=O)c1 (centres undefined)		> 100 µM (inactive)	> 100 µM (inactive)	GI50 (XF498): > 100 µM (inactive); GI50 (DMS-273): > 100 µM (inactive); GI50 (SNB-78): > 100 µM (inactive)
CSC(SC)(C(=O)O)c1cc(-c2c(Cl)cccc2Cl)no1	70.1 µM (inactive)			
CC(C)c1ccccc1NC(=O)C(=O)Cc1nc2ccccc2s1		> 100 µM (inactive)	> 100 µM (inactive)	GI50 (DMS-273): > 100 µM (inactive); GI50 (RXF 631): > 100 µM (inactive); GI50 (SNB-78): > 100 µM (inactive); GI50 (HOP-18): > 100 µM (inactive)
CCCCN1/C(=N/Nc2n[nH]c(=O)c3ccccc23)SCC1c1ccc(Cl)cc1 (centres undefined)	10.6 µM (inactive)			
COC(=O)/C(C#N)=C1\CCC(OC)N1 (centres undefined)		> 100 µM (inactive)	> 100 µM (inactive)	GI50 (XF498): > 100 µM (inactive); GI50 (DMS-273): > 100 µM (inactive); GI50 (SNB-78): > 100 µM (inactive); GI50 (HOP-18): > 100 µM (inactive); GI50 (DLD-1): > 100 µM (inactive)
CCOC(=O)C(Cc1cc(OC)c(CC(C(=O)OCC)C(=O)OCC)cc1OC)C(=O)OCC	> 100 µM (inactive)	> 100 µM (inactive)	> 100 µM (inactive)	GI50 (XF498): 21.6 µM (inactive); GI50 (DMS-273): > 100 µM (inactive); GI50 (SNB-78): 57.9 µM (inactive); GI50 (DLD-1): > 100 µM (inactive)
C=C(CCCCC)CN1CCCC1C(C)=O (centres undefined)		29.4 µM (inactive)	15 µM (inactive)	GI50 (XF498): 15 µM (inactive); GI50 (DMS-273): 21.5 µM (inactive); GI50 (SNB-78): 26.1 µM (inactive); GI50 (HOP-18): 28.9 µM (inactive); GI50 (DLD-1): 24.7 µM (inactive)
CCNC12CCC(C1)C(C)(C)C2=O (centres undefined)	> 100 µM (inactive)			
Cc1cccc2c1Sc1ccccc1C2NC(=O)CCN(C)C (centres undefined)		> 100 µM (inactive)	> 100 µM (inactive)	GI50 (DMS-273): > 100 µM (inactive); GI50 (SNB-78): > 100 µM (inactive); GI50 (DLD-1): > 100 µM (inactive)
CC(=O)n1nc(-c2ccccc2)n(/N=C/c2ccc([N+](=O)[O-])o2)c1=O	2.58 µM (inactive)			
CCC(=O)NCCc1c[nH]c2ccc(OC)cc12	> 100 µM (inactive)			
O=C1CCC2(c3ccc(F)cc3)Nc3ncncc3N12 (centres undefined)	2.32 µM (inactive)			
O=C(NNc1nc(-c2ccccc2)cs1)C(F)(F)F	> 100 µM (inactive)			
O=C(Nc1ccc2ccccc2c1)c1cc2cc(CCl)ccc2oc1=O	38.5 µM (inactive)			
Cc1csc2nc(-c3ccc([N+](=O)[O-])cc3)c(/C=N/N=C(N)N)n12	1.61 µM (inactive)			
